The test has as its system M. tuberculosis H37Rv growth inhibition, 7H9 media. Briefly: M. tuberculosis growth inhibition, HTS (AID 449762).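 For all read-outs here: bacterial growth assessed after seven days of incubation.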 The following applies: for IC90: measured here: IC90 growth inhibition.

Inconclusive results are not listed. Where a SMILES comes first, the peptide text is derived from it. [ ]: non-standard residue; d: D form. The star is where a group is joined. ξ: configuration not given here. ξF = NC(Cc1ccccc1)C(=O)O; Cbz = O=C(OCc1ccccc1)*

The IC50 is the point on the concentration scale where inhibition reaches its midpoint. As a reminder, the IC90 is the point of the concentration-response curve where the effect stands at 90%. Lower therefore signals an effect from little substance. Consider `CCOC(=O)CNC(=O)C(Cc1ccccc1)NC(=O)OCc1ccccc1` (stereo unspecified) (Cbz-[ξF]-Gly-OEt), for which the IC50 is 2.22 µM and the 90% effect concentration (IC90) stood at 3.36 µM.

`C=CCSc1n[nH]c(-c2ccc(OCCCC)cc2)n1`: the IC50 was 15.8 µM and the concentration for an effect of 90% (IC90) was determined as 39.2 µM. Take `O=C(CCl)Nc1cccn2ncnc12`: the IC50 is 1.38 µM and the IC90 was 2.89 µM.

For `Cc1ccc(NC(=O)c2sccc2-n2cccc2)c(C)c1`, the IC50 was 28.2 µM and the IC90 was 82.9 µM. As for `N#CC(C(=O)NCc1ccco1)c1nc2ccccc2nc1N1CCOCC1` (stereo unspecified), the IC50 is 43 µM and the concentration for an effect of 90% (IC90) came out at 45.2 µM.

`CCCCN1C(=O)C2(NNc3ccccc3O2)c2ccccc21` (stereo unspecified): the IC50 was 57.5 µM and the 90% effect concentration (IC90) is more than 100 µM. The like results for `O=C(Nc1nc2ccccc2[nH]1)C12CC3CC(CC(C3)C1)C2` were, in that order, 10.3 µM and 34.5 µM. In the same order, the values of `c1ccc(CN2CCN(c3nc(NCc4ccco4)c4ccccc4n3)CC2)cc1` are 18.1 µM and 23.8 µM. The like results for `CNC[C@@H](Cc1ccccc1)NC[C@@H](CC1CCCCC1)NCCCc1ccccc1` were, in that order, 7.96 µM and 9.49 µM.

On to `CCc1cc(OCCCCNCc2ccccc2)ccc1Cl`, for which the half-maximal inhibitory concentration (IC50) is 26.3 µM and the concentration for an effect of 90% (IC90) turned out to be 30.4 µM.

As to `CCOC(=O)COc1cc([N+](=O)[O-])cc2cccnc12`, the half-maximal inhibitory concentration (IC50) was 15.2 µM and the IC90 is 34.6 µM. Regarding `CC(C)Oc1ccc(C(=O)N/N=C/c2ccc(-c3ccc(S(=O)(=O)Nc4ncccn4)cc3)o2)cc1`, the IC50 is 19.2 µM and the IC90 was 37.4 µM. Regarding `Cc1ccc(/C=C2\C(=O)Nc3ccccc32)o1`, the IC50 was 3.54 µM and the concentration for an effect of 90% (IC90) was 6.03 µM. In the same order, the values of `CC(=O)n1cc(N(C(=O)CCl)c2ccc(Cl)cc2)c2ccccc21` are 1.82 µM and 3.99 µM. As for `C/C(=N\NC(=O)CC(C)C)c1c(C(F)(F)F)[nH]n(-c2nc3ccccc3s2)c1=O`, the IC50 is 42.4 µM and the concentration for an effect of 90% (IC90) is more than 100 µM. The like results for `CCOC(=O)C(/C=C(\C#N)C(=O)OCC)=C(/N)N1CCN(c2ccc(Cl)cc2)CC1` were, in that order, 18.5 µM and more than 100 µM. The like results for `COc1ccc(C=C2C=C(C(C)(C)C)C(=O)C(C(C)(C)C)=C2)cc1OC` were, in that order, 2.94 µM and 5.15 µM. For the compound `O=C(Oc1ccccc1-c1nnco1)c1ccc(Cl)cc1`, the concentration for half-maximal inhibition (IC50) was 10.3 µM and the IC90 amounted to 44.7 µM. In the same order, the values of `CC(C)Cn1c([N+](=O)[O-])nc2c1c(=O)[nH]c(=O)n2C` are 5.93 µM and 8.91 µM. Take `O=C(Nc1cc(C(F)(F)F)ccc1-n1cncn1)c1ccc([N+](=O)[O-])o1`: the half-maximal inhibitory concentration (IC50) was 9.55 µM and the IC90 was 32.5 µM.

As to `CC(NC(=O)c1ccccc1Br)C1CC2CCC1C2` (stereo unspecified), the half-maximal inhibitory concentration (IC50) is 21 µM and the 90% effect concentration (IC90) was more than 100 µM. In the same order, the values of `Cc1ccc(S(=O)(=O)NCc2ccc(C(=O)NCCCN3CCC(Cc4ccccc4)CC3)cc2)cc1` are 79.8 µM and more than 100 µM. In the same order, the values of `CCOC(=O)CNC(=O)CNC(=O)c1nn(-c2ccc(OC)c(Cl)c2)c(=O)c2ccccc12` are 22.2 µM and more than 100 µM. For the compound `Nc1c(N(CCC2=CCCCC2)C(=O)c2ccc([N+](=O)[O-])o2)c(=O)[nH]c(=O)n1Cc1ccccc1`, the IC50 is 16.6 µM and the concentration for an effect of 90% (IC90) worked out at 30.2 µM. For the compound `Cn1c(CNc2nc(-c3ccccc3)cs2)nnc1SCC(=O)OC1CCCCC1`, the concentration for half-maximal inhibition (IC50) is 11.6 µM and the 90% effect concentration (IC90) was determined as 24.2 µM. The like results for `CCOC(=O)COc1cc(O)c2c(=O)cc(-c3ccccc3)oc2c1` were, in that order, 0.68 µM and 2.33 µM. As for `COc1ccc(-c2oc(NC(=O)CCl)c(C#N)c2-c2ccc(OC)cc2)cc1`, the IC50 is 12.5 µM and the 90% effect concentration (IC90) was 54.7 µM. Turning to `CN(C)CCCN(C(=O)c1ccc([N+](=O)[O-])s1)c1nc2cc3c(cc2s1)OCCO3`, the half-maximal inhibitory concentration (IC50) was 30.7 µM and the concentration for an effect of 90% (IC90) was 45.5 µM. The like results for `CN(C)CCOc1nc(-c2ccccc2)nc2c1oc1ccccc12` were, in that order, 11.8 µM and 16.3 µM. `Cc1ccc(Cl)cc1N1CCN(Cc2nc3ccsc3c(=O)[nH]2)CC1`: the IC50 was 83.1 µM and the 90% effect concentration (IC90) is more than 100 µM. For `Nc1cc(Cl)c2nonc2c1[N+](=O)[O-]`, the IC50 is 5.83 µM and the IC90 was found to be 6.64 µM.

In the case of `Cc1ccccc1-n1sc2cc(F)ccc2c1=O`, the IC50 was 18.6 µM and the concentration for an effect of 90% (IC90) stood at 22.5 µM. With `O=C(CN1CCN(c2ccccc2O)CC1)Nc1ccccc1C(=O)NCCc1ccccc1`, the IC50 was 44.3 µM and the 90% effect concentration (IC90) was found to be 57.9 µM. The like results for `O=C(C1=C[C@@H](c2csc3ccccc23)C[C@@H](OCCCCO)O1)N1CCN(Cc2ccc3c(c2)OCO3)CC1` were, in that order, 28.5 µM and 47.8 µM.

Turning to `COc1cc2c(cc1OC)C1(Nc3c-2c(-c2ccccc2)nn3-c2ccccc2)C(=O)Nc2ccccc21` (stereo unspecified), the IC50 was 90.5 µM and the IC90 is more than 100 µM. For the compound `CN(CC(=O)Nc1ccc(F)c(F)c1F)c1cnccn1`, the concentration for half-maximal inhibition (IC50) was 6.08 µM and the IC90 is 12.8 µM.

Regarding `Cc1cc(OCc2cc(C(=O)N(C)CCc3cnn(C)c3)no2)cc(C)c1Cl`, the 50% inhibitory concentration (IC50) was 26.9 µM and the 90% effect concentration (IC90) came to 51.4 µM. For the compound `CCN1CCN(c2oc(COc3ccc(-c4ccccc4)cc3)nc2C#N)CC1`, the half-maximal inhibitory concentration (IC50) was 43.4 µM and the IC90 is 48.4 µM. The like results for `N#C/C(=N/Nc1ccc(OC(F)(F)F)cc1)C(N)=S` were, in that order, 2.14 µM and 3.43 µM. For the compound `CCN(CC)c1ccc2c(Cl)c(Br)c(=O)oc2c1`, the IC50 is 13.7 µM and the IC90 stood at 43.4 µM. As to `O=C(Nc1ccc(Cl)cc1)N(C1=NCCC1)c1ccc(OC(F)F)cc1`, the concentration for half-maximal inhibition (IC50) is 35 µM and the 90% effect concentration (IC90) stood at 70.9 µM. In the case of `CC(C)(C)NC(=O)[C@@H]1C[C@@H]2CCCC[C@@H]2CN1C[C@@H](O)[C@H](Cc1ccccc1)NC(=O)[C@H](CC(N)=O)NC(=O)c1ccc2ccccc2n1`, the IC50 was 40.1 µM and the IC90 was found to be 51.9 µM. In the same order, the values of `COc1ccc(-c2ccc(-c3noc(C(C)C)n3)c(OC)n2)cc1` are 10.7 µM and 26.7 µM. In turn, `O=C(Sc1nnc(-c2ccccc2)o1)N1c2ccccc2Sc2ccccc21` came in with a 90% effect concentration (IC90) of more than 100 µM. As for `COC(=O)/C(=C1/Oc2cc(C)oc(=O)c2S1)C(F)(F)F`, the IC50 was 6.24 µM and the IC90 was more than 100 µM. Regarding `CSc1cccc(CNC(=O)C2CCC(=O)N(Cc3cccc(C(F)(F)F)c3)C2)c1` (stereo unspecified), the IC50 was 26.6 µM and the IC90 was 30.6 µM. On to `Oc1ccc(N=Nc2n[nH]c(-c3ccc(Cl)cc3)n2)cc1`, for which the half-maximal inhibitory concentration (IC50) is 11.8 µM and the 90% effect concentration (IC90) stood at 59 µM.

In the case of `O=C(/C=C/Sc1ncn[nH]1)c1ccc(Cl)cc1`, the IC50 is 16.8 µM and the IC90 is 43.8 µM. In the same order, the values of `C/C(O)=C\c1nc2ccccc2oc1=O` are 0.77 µM and 0.86 µM. The like results for `CCOC(=O)c1ccc(Oc2nc(NC(C)(C)C)nc(N(C)C)n2)cc1` were, in that order, 21.3 µM and 82.2 µM. In the same order, the values of `Cc1ccccc1Nc1nc(N)nc(COC(=O)c2ccc([N+](=O)[O-])o2)n1` are 0.49 µM and 2.46 µM.

(Values after PubChem BioAssay AID449762 (Southern Research Specialized Biocontainment Screening …, 2010).)
